The target of this assay is R232-STING (Homo sapiens, UniProt Q86WV6, H232R). Put plainly: biochemical.

The structures appear in SMILES notation.

One may read the Ki as a dissociation constant, usually derived from enzyme kinetics or from competition with a known ligand. A low value points to a stronger hold on the target.

Chain of R232-STING (Q86WV6 155-341 H232R): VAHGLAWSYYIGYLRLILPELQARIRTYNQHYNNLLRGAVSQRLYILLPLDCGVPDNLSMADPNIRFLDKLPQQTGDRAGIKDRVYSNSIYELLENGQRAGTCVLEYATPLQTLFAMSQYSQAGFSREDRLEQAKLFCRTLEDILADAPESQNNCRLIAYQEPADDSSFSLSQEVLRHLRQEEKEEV

Take `CCn1nc(C)cc1-c1nnc(-c2cc(C(N)=O)cc3c2cnn3[C@H](C)CCCN(C)C)[nH]1` (racemic) [ZZZ031, 1-[(2R)-5-(dimethylamino)pentan-2-yl]-4-[5-(1-ethyl-3-methyl-1H-pyrazol-5-yl)-4H-1,2,4-triazol-3-yl]-1H-indazole-6-carboxamide]: the Ki was > 990 nM.
The figure for `CCn1nc(C)cc1-c1nnc(-c2cc(C(N)=O)cc3c2cnn3[C@H]2CCCNC2)[nH]1` [ZZZ061, 4-[5-(1-ethyl-3-methyl-1H-pyrazol-5-yl)-4H-1,2,4-triazol-3-yl]-1-[(3S)-piperidin-3-yl]-1H-indazole-6-carboxamide] is 882 nM.
`CCn1nc(C)cc1-c1nnc(-c2cc(C(N)=O)cc3c2cnn3C[C@@H](C)C2CCNCC2)[nH]1` [ZZZ076, 4-[5-(1-ethyl-3-methyl-1H-pyrazol-5-yl)-4H-1,2,4-triazol-3-yl]-1-[(2S)-2-(piperidin-4-yl)propyl]-1H-indazole-6-carboxamide]: affinity was put at a Ki of 976 nM.
In the case of `CCn1nc(C)cc1-c1n[nH]c(-c2cc(C(N)=O)cc3c2cnn3CCN2CC[C@H](O)C2)n1` (racemic) [ZZZ119, 4-[3-(1-ethyl-3-methyl-1H-pyrazol-5-yl)-1H-1,2,4-triazol-5-yl]-1-{2-[(3S)-3-hydroxypyrrolidin-1-yl]ethyl}-1H-indazole-6-carboxamide], the Ki was > 990 nM.
The figure for `CCn1nc(C)cc1-c1n[nH]c(-c2cc(C(N)=O)cc3c2cnn3CCN2CCO[C@@H](C)C2)n1` (racemic) [YY08, 4-[5-(1-ethyl-3-methyl-1H-pyrazol-5-yl)-4H-1,2,4-triazol-3-yl]-1-{2-[(2S)-2-methylmorpholin-4-yl]ethyl}-1H-indazole-6-carboxamide] is 373 nM; for `CCn1nc(C)cc1-c1n[nH]c(-c2cc(C(N)=O)cc3c2cnn3CCN2CC[C@@H](O)C2)n1` [ZZZ107, 4-[3-(1-ethyl-3-methyl-1H-pyrazol-5-yl)-1H-1,2,4-triazol-5-yl]-1-{2-[(3R)-3-hydroxypyrrolidin-1-yl]ethyl}-1H-indazole-6-carboxamide] it is > 990 nM; for `CCn1nc(C)cc1-c1nnc(-c2cc(C(N)=O)cc3c2cnn3CCN2CC(C)C2)[nH]1` [ZZZ036, 4-[5-(1-ethyl-3-methyl-1H-pyrazol-5-yl)-4H-1,2,4-triazol-3-yl]-1-[2-(3-methylazetidin-1-yl)ethyl]-1H-indazole-6-carboxamide] it is > 990 nM.
Turning to `CCn1nc(C)cc1-c1nnc(-c2cc(C(N)=O)cc3c2cnn3CCCNC2CCCCC2)[nH]1` [ZZZ071, 1-[3-(cyclohexylamino)propyl]-4-[5-(1-ethyl-3-methyl-1H-pyrazol-5-yl)-4H-1,2,4-triazol-3-yl]-1H-indazole-6-carboxamide], the Ki is > 990 nM.
The figure for `CCn1nc(C)cc1-c1nnc(-c2cc(C(N)=O)cc3c2cnn3CC2CC3CNCC3C2)[nH]1` (stereo not shown) [ZZZ074, 4-[5-(1-ethyl-3-methyl-1H-pyrazol-5-yl)-4H-1,2,4-triazol-3-yl]-1-[(octahydrocyclopenta[c]pyrrol-5-yl)methyl]-1H-indazole-6-carboxamide] is > 990 nM; for `CCn1nc(C)cc1-c1nnc(-c2cc(C(N)=O)cc3c2cnn3CCN2CCC2)[nH]1` [ZZZ039, 1-[2-(azetidin-1-yl)ethyl]-4-[5-(1-ethyl-3-methyl-1H-pyrazol-5-yl)-4H-1,2,4-triazol-3-yl]-1H-indazole-6-carboxamide] it is > 990 nM.
The figure for `CCn1nc(C)cc1-c1nnc(-c2cc(C(N)=O)cc3[nH]ncc23)[nH]1` [ZZZ001, 4-[5-(1-ethyl-3-methyl-1H-pyrazol-5-yl)-4H-1,2,4-triazol-3-yl]-1H-indazole-6-carboxamide] is > 990 nM.
For `CCn1nc(C)cc1-c1n[nH]c(-c2cc(C(N)=O)cc3c2cnn3CCN(C)CCO)n1` [ZZZ109, 4-[3-(1-ethyl-3-methyl-1H-pyrazol-5-yl)-1H-1,2,4-triazol-5-yl]-1-{2-[(2-hydroxyethyl)(methyl)amino]ethyl}-1H-indazole-6-carboxamide], the inhibition constant Ki amounted to 954 nM.
The molecule `CCn1nc(C)cc1-c1nnc(-c2cc(C(N)=O)cc3c2cnn3CC23CCCC2CNC3)[nH]1` (stereo not shown) [ZZZ060, 4-[5-(1-ethyl-3-methyl-1H-pyrazol-5-yl)-4H-1,2,4-triazol-3-yl]-1-[(hexahydrocyclopenta[c]pyrrol-3a(1H)-yl)methyl]-1H-indazole-6-carboxamide] displayed a Ki of 541 nM.
The figure for `CCn1nc(C)cc1-c1nnc(-c2cc(C(N)=O)cc3c2cnn3C[C@H]2CC23CCNCC3)[nH]1` (racemic) [ZZZ072, 1-{[(1S)-6-azaspiro[2.5]octan-1-yl]methyl}-4-[5-(1-ethyl-3-methyl-1H-pyrazolo-5-yl)-4H-1,2,4-triazol-3-yl]-1H-indazole-6-carboxamide] is 835 nM; for `CCn1ccc2c(-c3nc(-c4cc(C)nn4CCC(=O)O)n[nH]3)nc(C(N)=O)cc21` [ZZZ062, 3-{5-[5-(6-carbamoyl-1-ethyl-1H-pyrrolo[3,2-c]pyridin-4-yl)-1H-1,2,4-triazol-3-yl]-3-methyl-1H-pyrazol-1-yl}propanoic acid] it is 543 nM.
Consider `CCn1nc(C)cc1-c1n[nH]c(-c2cc(C(N)=O)cc3c2cnn3CCN2CCO[C@@H](CO)C2)n1` (racemic) [ZZZ092, 4-[3-(1-ethyl-3-methyl-1H-pyrazol-5-yl)-1H-1,2,4-triazol-5-yl]-1-{2-[(2R)-2-(hydroxymethyl)morpholin-4-yl]ethyl}-1H-indazole-6-carboxamide], for which the Ki was determined as 969 nM.
The figure for `CCn1nc(C)cc1-c1nnc(-c2cc(C(N)=O)cc3c2cnn3CCCCN2CCCCC2)[nH]1` [ZZZ043, 4-[5-(1-ethyl-3-methyl-1H-pyrazol-5-yl)-4H-1,2,4-triazol-3-yl]-1-[4-(piperidin-1-yl)butyl]-1H-indazole-6-carboxamide] is > 990 nM.
The figure for `CCn1nc(C)cc1-c1nnc(-c2cc(C(N)=O)cc3c2cnn3C[C@@H](C)N(C)C)[nH]1` [ZZZ015, 1-[(2R)-2-(dimethylamino)propyl]-4-[5-(1-ethyl-3-methyl-1H-pyrazol-5-yl)-4H-1,2,4-triazol-3-yl]-1H-indazole-6-carboxamide] is > 990 nM; for `CCn1nc(C)cc1-c1nnc(-c2cc(C(N)=O)cc3c2cnn3CC[C@@H]2CCN(C)C2)[nH]1` [ZZZ035, 4-[5-(1-ethyl-3-methyl-1H-pyrazol-5-yl)-4H-1,2,4-triazol-3-yl]-1-{2-[(3S)-1-methylpyrrolidin-3-yl]ethyl}-1H-indazole-6-carboxamide] it is > 990 nM.
The figure for `CCn1nc(C)cc1-c1nnc(-c2cc(C(N)=O)cc3c2cnn3CC[C@@H]2COCCN2)[nH]1` [ZZZ059, 4-[5-(1-ethyl-3-methyl-1H-pyrazol-5-yl)-4H-1,2,4-triazol-3-yl]-1-{2-[(3R)-morpholin-3-yl]ethyl}-1H-indazole-6-carboxamide] is 948 nM; for `CCn1nc(C)c(O)c1-c1cnc(-c2cc(C(N)=O)cc3c2cnn3C)[nH]1` [ZZZ123, 4-[5-(1-ethyl-4-hydroxy-3-methyl-1H-pyrazol-5-yl)-1H-imidazol-2-yl]-1-methyl-1H-indazole-6-carboxamide] it is 63.3 nM.
In the case of `CCn1nc(C)cc1-c1n[nH]c(-c2cc(C(N)=O)cc3c2cnn3CCN2CC(C)(O)C2)n1` [ZZZ103, 4-[3-(1-ethyl-3-methyl-1H-pyrazol-5-yl)-1H-1,2,4-triazol-5-yl]-1-[2-(3-hydroxy-3-methylazetidin-1-yl)ethyl]-1H-indazole-6-carboxamide], the Ki was > 990 nM.
The figure for `CCn1nc(C)cc1-c1nnc(-c2cc(C(N)=O)cc3c2cnn3C2CCNCC2)[nH]1` [ZZZ067, 4-[5-(1-ethyl-3-methyl-1H-pyrazol-5-yl)-4H-1,2,4-triazol-3-yl]-1-(piperidin-4-yl)-1H-indazole-6-carboxamide] is 536 nM.
`CCn1nc(C)c(F)c1-c1nc(-c2cc(C(N)=O)cc3c2cnn3C)n(C)n1` [ZZZ129, 4-[3-(1-ethyl-4-fluoro-3-methyl-1H-pyrazol-5-yl)-1-methyl-1H-1,2,4-triazol-5-yl]-1-methyl-1H-indazole-6-carboxamide]: the Ki was determined as 952 nM.
For `CCn1nc(C)cc1-c1n[nH]c(-c2cc(C(N)=O)cc3c2cnn3CCN2CCO[C@@H](COC)C2)n1` (racemic) [ZZZ114, 4-[3-(1-ethyl-3-methyl-1H-pyrazol-5-yl)-1H-1,2,4-triazol-5-yl]-1-{2-[(2R)-2-(methoxymethyl)morpholin-4-yl]ethyl}-1H-indazole-6-carboxamide], the Ki stood at 943 nM.
For `CCn1nc(C)cc1-c1nnc(-c2cc(C(N)=O)cc3c2cnn3[C@@H](C)CN(C)C)[nH]1` [ZZZ020, 1-[(2S)-1-(dimethylamino)propan-2-yl]-4-[5-(1-ethyl-3-methyl-1H-pyrazol-5-yl)-4H-1,2,4-triazol-3-yl]-1H-indazole-6-carboxamide], the Ki was > 990 nM.
`Cn1ncc2c(-c3nc(-c4cc(C(F)(F)F)nn4CCC(=O)O)n[nH]3)cc(C(N)=O)cc21` [ZZZ085, 3-{5-[5-(6-carbamoyl-1-methyl-1H-indazol-4-yl)-1H-1,2,4-triazol-3-yl]-3-(trifluoromethyl)-1H-pyrazol-1-yl}propanoic acid]: the Ki amounted to 44.2 nM.
Consider `CCn1nc(C(=O)O)cc1-c1n[nH]c(-c2nc(C(N)=O)cc3c2cnn3C)n1` [ZZZ004, 5-[5-(6-carbamoyl-1-methyl-1H-pyrazolo[4,3-c]pyridin-4-yl)-1H-1,2,4-triazol-3-yl]-1-ethyl-1H-pyrazole-3-carboxylic acid], for which the Ki was > 90 nM.
For `CCn1nc(C)cc1-c1nnc(-c2cc(C(N)=O)cc3c2cnn3C(C)CN2CCCCC2)[nH]1` (stereo not shown) [ZZZ026, 4-[5-(1-ethyl-3-methyl-1H-pyrazol-5-yl)-4H-1,2,4-triazol-3-yl]-1-[1-(piperidin-1-yl)propan-2-yl]-1H-indazole-6-carboxamide], the Ki was > 990 nM.
Take `Cc1cc(-c2n[nH]c(-c3nc(C(N)=O)cc4c3cnn4C)n2)n(CCCN)n1` [ZZZ132, 4-{3-[1-(3-aminopropyl)-3-methyl-1H-pyrazol-5-yl]-1H-1,2,4-triazol-5-yl}-1-methyl-1H-pyrazolo[4,3-c]pyridine-6-carboxamide]: the Ki is > 990 nM.
The figure for `CCn1nc(C)cc1-c1n[nH]c(-c2cc(C(N)=O)cc3c2cnn3CCN2CCO[C@@H](C3CC3)C2)n1` (racemic) [ZZZ117, 1-{2-[(2S)-2-cyclopropylmorpholin-4-yl]ethyl}-4-[3-(1-ethyl-3-methyl-1H-pyrazol-5-yl)-1H-1,2,4-triazol-5-yl]-1H-indazole-6-carboxamide] is 848 nM.

For the origin of these results see patent US12297190B2, “Modulators of STING (stimulator of interferon genes)” (PFIZER INC., priority 2019, dated 2025).
